Where a SMILES comes first, the peptide text is derived from it.
Key:
[1] = tested on: P. aeruginosa (Liberec) biofilm; assay: Bacterial biofilm, remaining metabolic activity (MTT); type: cell-based, Pseudomonas aeruginosa; conditions: remaining metabolic activity of biofilm, 20 h
Description: (§1) Inoculum of S. aureus (Liberec) or P. aeruginosa (Liberec) cultivated overnight in BHI medium was diluted with fresh BHI medium containing 1% glucose to a final concentration to be ca. 10^8 CFU/ml. Then this was pipetted (100 μl) to 96-multiwell polystyrene plate which was incubated at 37° C. under rotary shaking (300 RPM) for 24 h. Medium without bacteria in the wells was used as a negative control. Supernatant from each well was drained and the biofilm formed on the bottom and on the walls of the wells was cautiously washed three times by sterile physiological solution (300 μl). The peptides tested in the concentrations of 1-128 μmol.l^−1 were prepared by twofold serial dilution of their stock solution (1 mmol.l^−1) in fresh BHI medium and then pipetted (100 μl) to the wells with formed biofilms. The biofilms covered by BHI medium without peptide were used as a positive control. The plates were then incubated for 20 h as described above. After that the liquid was drained out and wells were washed twice with sterile physiological solution.
(§2) The metabolic activity of surviving bacterial cells in the biofilm was determined by staining with MTT (3-(4,5-dimethylthiazol-2-yl)-2,5-diphenyl-2H-tetrazolium bromide) as follows: The mixture of BHI medium (100 μl) and 10 μl of the stock solution of MTT (5 mg/ml in physiological solution) was added to each well and the plate was incubated 40 min at 37° C. The liquid was drained out and the insoluble formazan crystals formed by reduction inside the biofilm were dissolved with dimethyl sulphoxide (100 μl). The intensity of staining in each well was measured as absorbance at 540 nm on a Tecan Infinite M200 Pro reader (Tecan GmbH, Austria). Remaining activity of surviving cells inside the biofilm was expressed for each well in percentage according to the following equation:
(§3) [formula] where A is the absorbance of the tested compound, ABL is the absorbance of the negative control, and AC is the absorbance of control biofilm.

[2] = tested on: S. aureus (Liberec) biofilm; assay: as above; type: cell-based, Staphylococcus aureus; conditions: remaining metabolic activity of biofilm, 20 h
Description: as §1, §2, §3

[3] = tested on: Candida albicans (Olomouc) biofilm; assay: C. albicans biofilm, remaining metabolic activity (XTT); type: cell-based
Description: Candida albicans (Olomouc) was sub-cultured overnight in YPD medium (10 g yeast extract (DIFCO, USA), 20 g peptone (OXOID), 20 g glucose (Penta) dissolved in 1 L of distilled water) at constant shaking (100 RPM) at 37° C. Next day, the overnight culture was diluted 1:100 into fresh YPD medium and incubated at constant shaking (200 RPM) at 37° C. until the mid-exponential growth phase was reached. Then the cells were harvested and washed twice by centrifugation in physiological solution (5000 RPM; 5 min). Cells were suspended in sterile salt solution and their optical density was determined at 600 nm.
A final yeast suspension was prepared at a cell density of 1×10^6 CFU (corresponding to optical density of 0.17 at 600 nm) in RPMI 1640 medium with L-glutamine (BioSera), NaHCO3 (2 g/l; Penta) and 0.165 mol.l^−1 MOPS (Duchefa)—further as RPMI broth medium 1.
Biofilms were formed on commercially available sterile, polystyrene, flat-bottomed, 96-well microtiter plates (TPP, SW). Cell suspension (100 μl) was pipetted into selected wells of a microtiter plate and incubated without shaking for 2 hours at 37° C. Afterwards, the wells were washed twice with sterile PBS buffer (1.44 g Na2HPO4, 0.24 g KH2PO4, 0.2 g KCl and 8 g NaCl in 1 l distilled water, pH=7; Penta). Fresh RPMI broth medium 1 (100 μl) was added to each well and the plate was sealed with parafilm and incubated without shaking for 48 hours at 37° C.
Planktonic and non-adherent cells were removed by threefold washing of the biofilm with sterile PBS buffer (200 μl). A twofold serial dilution was used to reach required peptide concentration (in RPMI broth medium 1) in each well. Peptide concentrations range was between 0.39-200 μmol.l^−1. Plates were then sealed with parafilm and incubated for 20 hours at 37° C.
The metabolic activity of surviving Candida cells in the treated biofilm was determined by staining with XTT (2,3-Bis(2-methoxy-4-nitro-5-sulphophenyl)-2H-tetrazolium-5-carboxanilide). Stock solution of PMS (phenazine methosulfate; 7.5 g/l; SIGMA, Czech Republic) stored at −20° C. was diluted in PBS buffer 1:100. Diluted PMS was further mixed (2:25) with stock solution of XTT (0.5 g/l; Alchimica, Slovakia) dissolved in PBS/RPMI broth medium (1:1). Mixture (100 μl) of PMS and XTT was added into treated biofilm in the wells and incubated for 90 min at 37° C. Then the intensity of staining in each well was measured as absorbance at 540 nm on a Tecan Infinite M200 Pro reader (Tecan GmbH, Austria). Remaining metabolic activity of the cells in the biofilm was expressed for each well in percentage and calculated as follows:
[formula] where A is the absorbance of tested compound, ABL is the absorbance of negative control and AC is the absorbance of control untreated biofilm. The non-inoculated wells served as negative control. Inoculated wells not treated with compound served as positive control. Amphotericin B was used as control drug to ensure quality of Candida albicans. The values of remaining metabolic activity of treated biofilms are shown at Table 5.

in vitro = conditions: human
Description: The peptides in the concentrations 2-200 μmol.l^−1 were incubated with the suspension of human red blood cells (5% v/v) for 1 h at 37° C. in a physiological solution at a final volume of 0.2 ml. The samples were then centrifuged for 5 min at 250 g, and the absorbance of the supernatant was determined at 540 nm. Supernatants of red blood cells suspended in physiological solution and in 0.2% (v/v) TRITON X100 in physiological solution served as controls for zero hemolysis (blank) and 100% hemolysis, respectively. Hemolytic activity is expressed as the peptide concentration required for lysis of 50% of human erythrocytes in the assay (LC50).

[4] = peptide concentration 8 μmol · l^−1
[5] = peptide concentration 16 μmol · l^−1
[6] = peptide concentration 32 μmol · l^−1
[7] = peptide concentration 64 μmol · l^−1
[8] = peptide concentration 128 μmol · l^−1
[9] = peptide concentration 6.25 μmol · l^−1, 20 hours
[10] = peptide concentration 12.5 μmol · l^−1, 20 hours
[11] = peptide concentration 25 μmol · l^−1, 20 hours
[12] = peptide concentration 50 μmol · l^−1, 20 hours
[13] = peptide concentration 100 μmol · l^−1, 20 hours
[14] = peptide concentration 200 μmol · l^−1, 20 hours

| Molecule | Metabolic activity (%) P. aeruginosa (Liberec) [1, 4] [%] | Metabolic activity (%) P. aeruginosa (Liberec) [1, 5] [%] | Metabolic activity (%) P. aeruginosa (Liberec) [1, 6] [%] | Metabolic activity (%) P. aeruginosa (Liberec) [1, 7] [%] | Metabolic activity (%) P. aeruginosa (Liberec) [1, 8] [%] | Metabolic activity (%) S. aureus (Liberec) [2, 4] [%] | Metabolic activity (%) S. aureus (Liberec) [2, 5] [%] | Metabolic activity (%) S. aureus (Liberec) [2, 6] [%] | Metabolic activity (%) S. aureus (Liberec) [2, 7] [%] | Metabolic activity (%) S. aureus (Liberec) [2, 8] [%] | Metabolic activity of C. albicans (%) [3, 9] [%] | Metabolic activity of C. albicans (%) [3, 10] [%] | Metabolic activity of C. albicans (%) [3, 11] [%] | Metabolic activity of C. albicans (%) [3, 12] [%] | Metabolic activity of C. albicans (%) [3, 13] [%] | Metabolic activity of C. albicans (%) [3, 14] [%] | CC50 at 1 h (in vitro) [µM] | HC50 at 1 h (in vitro) [µM] |
| --- | --- | --- | --- | --- | --- | --- | --- | --- | --- | --- | --- | --- | --- | --- | --- | --- | --- | --- |
| NCC[C@H](O)C(=O)N[C@@H]1C[C@H](N)[C@@H](O[C@H]2O[C@H](CN)[C@@H](O)[C@H](O)[C@H]2O)[C@H](O)[C@H]1O[C@H]1O[C@H](CO)[C@@H](O)[C@H](N)[C@H]1O [Amikacin, reference compound] | 80.0 | 62.9 | 40.4 | 20.3 | 11.8 | 95.4 | 102.4 | 108.7 | 82.4 | 104.0 |  |  |  |  |  |  |  |  |
| CC[C@@H](C)[C@@H](NC(=O)CN)C(=O)N[C@H](CC(C)C)C(=O)N[C@H](CO)C(=O)N[C@H](CO)C(=O)N[C@H](CC(C)C)C(=O)N[C@H](CC(C)C)C(=O)N[C@H](CCCCN)C(=O)N[C@H](CCCCN)C(=O)N[C@H](CC(C)C)C(=O)N[C@H](CCCCN)C(=O)N[C@H](CCCCN)C(=O)N[C@@H](C(=O)N[C@@H](C(=O)N[C@H](C)C(=O)N[C@H](CCCCN)C(N)=O)[C@H](C)CC)[C@H](C)CC [IV] (HELM PEPTIDE1{G.[dI].[dL].[dS].[dS].[dL].[dL].[dK].[dK].[dL].[dK].[dK].[dI].[dI].[dA].[dK].[am]}$$$$V2.0) | 56.5 | 69.5 | 56.0 | 59.6 | 21.7 | 65.5 | 34.2 | 7.1 | 3.0 | 0.0 | 106.9 | 37.2 | 6.0 | 2.3 | 2.1 | 0.5 | 333 |  |
| CN[C@H](CC(C)C)C(=O)N[C@H]1C(=O)N[C@@H](CC(N)=O)C(=O)N[C@H]2C(=O)N[C@H]3C(=O)N[C@H](C(=O)N[C@H](C(=O)O)c4cc(O)cc(O)c4-c4cc3ccc4O)[C@H](O)c3ccc(c(Cl)c3)Oc3cc2cc(c3O[C@@H]2O[C@H](CO)[C@@H](O)[C@H](O)[C@H]2O[C@H]2C[C@](C)(N)[C@H](O)[C@H](C)O2)Oc2ccc(cc2Cl)[C@H]1O [Vancomycin, reference compound] |  |  |  |  |  | 52.8 | 15.9 | 9.7 | 8.5 | 6.3 |  |  |  |  |  |  |  |  |
| CC[C@@H](C)[C@@H](NC(=O)CN)C(=O)N[C@H](CC(C)C)C(=O)N[C@H](CO)C(=O)N[C@H](CO)C(=O)N[C@H](CC(C)C)C(=O)N[C@H](Cc1c[nH]c2ccccc12)C(=O)N[C@H](CCCCN)C(=O)N[C@H](CCCCN)C(=O)N[C@H](CC(C)C)C(=O)N[C@H](CCCCN)C(=O)N[C@H](CCCCN)C(=O)N[C@@H](C(=O)N[C@@H](C(=O)N[C@H](C)C(=O)N[C@H](CCCCN)C(N)=O)[C@H](C)CC)[C@H](C)CC [XIII] (HELM PEPTIDE1{G.[dI].[dL].[dS].[dS].[dL].[dW].[dK].[dK].[dL].[dK].[dK].[dI].[dI].[dA].[dK].[am]}$$$$V2.0) | 71.2 | 65.8 | 61.2 | 73.6 | 23.0 | 71.6 | 33.8 | 21.5 | 20.4 | 5.3 | 78.3 | 56.9 | 37.2 | 10.9 | 5.8 | 4.9 | 191 |  |
| H-GILSSLLKKLKKIIAK-NH2 [III] |  |  |  |  |  | 87.8 | 89.6 | 78.4 | 15.9 | 2.4 | 104.7 | 113.6 | 87.2 | 31.1 | 28.4 | 0.0 | 284 |  |
| H-GILSSLWKKLKKIIAK-NH2 [XII] | 77.3 | 69.3 | 66.9 | 44.4 | 57.9 | 52.2 | 31.5 | 18.9 | 14.7 | 1.0 | 86.8 | 80.3 | 94.8 | 63.6 | 6.2 | 3.2 | 197 |  |
| H-GIMSSLMKKLAAHIKK-NH2 [VIII] |  |  |  |  |  |  |  |  |  |  |  |  |  |  |  |  |  | > 400 |

Source: US10160785B2, “Antimicrobial peptides and their use for the treatment of topical infections” (priority 2015, dated 2018)
